Laboratory results as given in patent publication US5115099A, “Substrates for determination of enzyme activity and intermediates for synthesis of the substrates as well as process for producing the intermediates” (Nitto Boseki Co., Ltd., priority 1988, dated 1992).
Where a name gives a salt, the structure may show the parent alone. Where a SMILES comes first, the peptide text is derived from it.

Legend:
[1] = molecular target: T1, α2 -macroglobulin-trypsin complex (α2 M-Try) (Bos taurus, UniProt P00760); experiment: Relative reactivity of substrate with α2 M-Try (absorbancy at 405 nm); assay type: biochemical, Bovine; conditions: substrate 10 mM/l; α2 M-Try 1/20 dilution; Bistrispropane 100 mmol, NaCl 150 mmol, pH 8.7; 37° C. 10 minutes; absorbancy 405 nm; relative to S-2222 10 mM = 1.0
T1 construct: purchased SIGMA (Try); Boehringer (α2 M)
T1 sequence (P00760 24-246): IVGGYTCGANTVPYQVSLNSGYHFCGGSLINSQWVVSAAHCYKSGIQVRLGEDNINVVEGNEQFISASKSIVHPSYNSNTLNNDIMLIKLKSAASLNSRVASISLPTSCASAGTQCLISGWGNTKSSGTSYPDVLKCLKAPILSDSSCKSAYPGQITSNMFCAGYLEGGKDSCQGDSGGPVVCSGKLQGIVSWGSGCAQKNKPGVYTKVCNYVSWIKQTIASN
T1 sequence (Q7SIH1 24-1510 partner): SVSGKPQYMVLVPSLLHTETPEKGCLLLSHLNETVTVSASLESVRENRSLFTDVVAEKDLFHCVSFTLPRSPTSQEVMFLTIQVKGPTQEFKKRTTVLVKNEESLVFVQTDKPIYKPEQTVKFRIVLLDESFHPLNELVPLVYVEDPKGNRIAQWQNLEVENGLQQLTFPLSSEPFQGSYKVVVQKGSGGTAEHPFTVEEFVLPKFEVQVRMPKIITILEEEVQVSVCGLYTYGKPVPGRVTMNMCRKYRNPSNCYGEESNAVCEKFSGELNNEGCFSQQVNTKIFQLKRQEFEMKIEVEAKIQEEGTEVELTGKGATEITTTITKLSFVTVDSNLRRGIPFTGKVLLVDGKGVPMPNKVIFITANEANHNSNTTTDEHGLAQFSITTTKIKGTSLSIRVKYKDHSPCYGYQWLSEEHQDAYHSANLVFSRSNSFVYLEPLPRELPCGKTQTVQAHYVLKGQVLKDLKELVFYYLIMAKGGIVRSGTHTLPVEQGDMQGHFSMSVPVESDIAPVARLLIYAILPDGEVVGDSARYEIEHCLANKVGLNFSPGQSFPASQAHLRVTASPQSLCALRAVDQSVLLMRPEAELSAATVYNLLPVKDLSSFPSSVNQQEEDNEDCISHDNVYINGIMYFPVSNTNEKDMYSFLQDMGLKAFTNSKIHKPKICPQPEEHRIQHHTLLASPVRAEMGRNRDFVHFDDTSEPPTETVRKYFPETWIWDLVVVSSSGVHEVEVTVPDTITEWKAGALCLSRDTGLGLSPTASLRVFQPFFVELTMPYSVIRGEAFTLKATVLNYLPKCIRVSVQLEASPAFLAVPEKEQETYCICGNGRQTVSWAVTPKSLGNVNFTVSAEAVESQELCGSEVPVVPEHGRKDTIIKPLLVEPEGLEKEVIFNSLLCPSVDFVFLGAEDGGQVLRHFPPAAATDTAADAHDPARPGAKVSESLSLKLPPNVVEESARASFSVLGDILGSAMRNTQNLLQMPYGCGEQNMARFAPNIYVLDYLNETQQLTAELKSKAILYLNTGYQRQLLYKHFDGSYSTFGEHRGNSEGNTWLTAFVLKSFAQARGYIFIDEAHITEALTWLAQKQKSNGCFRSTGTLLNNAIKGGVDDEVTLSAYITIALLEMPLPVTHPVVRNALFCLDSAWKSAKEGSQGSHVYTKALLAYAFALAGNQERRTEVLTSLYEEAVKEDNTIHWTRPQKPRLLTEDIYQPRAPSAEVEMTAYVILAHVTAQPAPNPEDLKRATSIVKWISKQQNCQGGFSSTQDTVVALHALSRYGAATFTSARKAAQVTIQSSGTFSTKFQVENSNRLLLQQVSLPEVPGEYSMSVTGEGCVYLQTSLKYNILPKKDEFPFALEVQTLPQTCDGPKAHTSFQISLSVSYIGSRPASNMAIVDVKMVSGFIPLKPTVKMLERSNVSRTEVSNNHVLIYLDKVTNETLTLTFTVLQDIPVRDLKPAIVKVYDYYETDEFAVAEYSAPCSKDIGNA
Protocol: (§1) Specificity of the synthesized new substrate was examined by reacting with each enzyme. Details of reagents used are as describved below.
(§2) (2) Buffer: Kind of buffer, NaCl and its concentration and pH (25° C.) were set as shown below depending upon enzyme. […]
(§3) (3) Enzyme used: Enzyme used and its source, etc. are as follows. […]
(§4) (4) Terminate solution: 10% acetic acid aqueous solution.
Buffer, 0.5 ml and 0.1 ml of substrate solution are charged in a silicone-treated hard glass test tube or plastic test tube. The mixture is previously heated for 5 minutes in a thermostat at 37° C.
Then, 0.05 ml of enzyme reagent is added to the mixture to perform enzyme reaction at 37° C. for 10 minutes.
Accurately 10 minutes after, 1.0 ml of the terminate solution is added to stop the enzyme reaction. Then the reaction mixture is allowed to stand at 37° C. for 10 minutes and its absorbancy is measured at 405 nm.
(§5) Values in the tables indicate relative values when absorbancy of substrate S-2222, 10 mM, was made 1.0.

Normal serum = experiment: Relative reactivity of substrate with normal serum (absorbancy at 405 nm); assay type: biochemical; conditions: substrate 10 mM/l; undiluted human normal serum; Tris 50 mmol, NaCl 150 mmol, pH 8.5; 37° C. 5 minutes; absorbancy 405 nm; relative to S-2222 10 mM = 1.0
Protocol: as §1, §2, §3
Normal Human -- -- undiluted
as §4
Buffer, 0.5 ml and 0.1 ml of substrate solution are charged in a silicone-treated hard glass test tube or plastic test tube. The mixture is previously heated for 5 minutes in a thermostat at 37° C. Then, 0.1 ml of normal serum is added to the mixture to perform enzyme reaction at 37° C. for 5 minutes.
Accurately 5 minutes after, 2.0 ml of the terminate solution is added to stop the enzyme reaction. Then the reaction mixture is allowed to stand at 37° C. for 10 minutes and its absorbancy is measured at 405 nm.
as §5

[2] = Solubility of the substrates in water; assay type: physicochemical
From the text: (B) Solubility of the substrates of this invention and known substrates in water were examined.

Trypsin = molecular target: T2, Trypsin (Bos taurus, UniProt P00760); experiment: Relative reactivity of substrate with trypsin (absorbancy at 405 nm); assay type: biochemical, Bovine; conditions: substrate 10 mM/l; trypsin 0.07 U/ml; Tris 50 mmol, NaCl 150 mmol, pH 8.1; 37° C. 10 minutes; absorbancy 405 nm; relative to S-2222 10 mM = 1.0
T2 construct: purchased Boehringer
T2 sequence (P00760 24-246): T1 sequence (P00760 24-246)
Protocol: as §1, §2, §3, §4
Buffer, 0.5 ml and 0.1 ml of substrate solution are charged in a silicone-treated hard glass test tube or plastic test tube. The mixture is previously heated for 10 minutes in a thermostat at 37° C. Then, 0.05 ml of enzyme reagent is added to the mixture to perform enzyme reaction at 37° C. for 10 minutes.
Accurately 10 minutes after, 2.5 ml of the terminate solution is added to stop the enzyme reaction. Then the reaction mixture is allowed to stand at 37° C for 10 minutes and its absorbancy is measured at 405 nm.
as §5

Compound: CC(C)[C@H](NC(=O)OCc1ccccc1)C(=O)NCC(=O)N[C@@H](CCCNC(=N)N)C(=O)Nc1ccc([N+](=O)[O-])cc1 [CHR-TRY, Z-Val-Gly-Arg-pNA-HCl, reference compound] (HELM PEPTIDE1{[O=C(OCc1ccccc1)[*:2]].V.G.R.[O=[N+]([O-])c1ccc(N[*:1])cc1]}$$$$V2.0)
- Relative Reactivity to Enzyme (relative value of absorbance) α2 M-Try [1]: 0.73
- Relative Reactivity to Enzyme (relative value of absorbance) Normal Serum (Normal serum): 1.70
- Solubility [2]: insoluble
- Relative Reactivity to Enzyme (relative value of absorbance) Try (Trypsin): 0.50

Compound: Cl.Cl.NC(N)=NCCC[C@H](NC(=O)[C@@H]1CCCCN1C(=O)[C@H](N)Cc1ccccc1)C(=O)Nc1ccc([N+](=O)[O-])cc1 [S-2238, HDPhePipArgpNA.2HCl, reference compound]
- Relative Reactivity to Enzyme (relative value of absorbance) α2 M-Try [1]: 0.68
- Relative Reactivity to Enzyme (relative value of absorbance) Normal Serum (Normal serum): 5.50
- Relative Reactivity to Enzyme (relative value of absorbance) Try (Trypsin): 0.39

Compound: Cl.Cl.NC(N)=NCCC[C@H](NC(=O)CNC(=O)[C@H](N)CCC(=O)OCc1ccccc1)C(=O)Nc1ccc([N+](=O)[O-])cc1 [Substrate No. 2] (HELM PEPTIDE1{[dE].G.R.[O=[N+]([O-])c1ccc(N[*:1])cc1]}|CHEM1{[c1ccc(CO[*:1])cc1]}$PEPTIDE1,CHEM1,1:R3-1:R1$$$V2.0)
- Relative Reactivity to Enzyme (relative value of absorbance) α2 M-Try [1]: 1.01
- Relative Reactivity to Enzyme (relative value of absorbance) Normal Serum (Normal serum): 0.12
- Relative Reactivity to Enzyme (relative value of absorbance) Try (Trypsin): 0.71

Compound: CC(C)OC(=O)CC[C@@H](N)C(=O)NCC(=O)N[C@@H](CCCN=C(N)N)C(=O)Nc1ccc([N+](=O)[O-])cc1.Cl.Cl [Substrate No. 3] (HELM PEPTIDE1{[dE].G.R.[O=[N+]([O-])c1ccc(N[*:1])cc1]}|CHEM1{[CC(C)O[*:1]]}$PEPTIDE1,CHEM1,1:R3-1:R1$$$V2.0)
- Relative Reactivity to Enzyme (relative value of absorbance) α2 M-Try [1]: 1.20
- Relative Reactivity to Enzyme (relative value of absorbance) Normal Serum (Normal serum): 0.41
- Relative Reactivity to Enzyme (relative value of absorbance) Try (Trypsin): 0.67

Compound: CCCN(CCC)C(=O)CC[C@@H](N)C(=O)NCC(=O)N[C@@H](CCCN=C(N)N)C(=O)Nc1ccc([N+](=O)[O-])cc1.Cl.Cl [Substrate No. 21]
- Relative Reactivity to Enzyme (relative value of absorbance) α2 M-Try [1]: 1.46
- Relative Reactivity to Enzyme (relative value of absorbance) Normal Serum (Normal serum): 0.20
- Relative Reactivity to Enzyme (relative value of absorbance) Try (Trypsin): 0.74

Compound: Bz-Ile-Glu(OR)-Gly-Arg-pNA.HCl; R=H and CH3 [S-2222, reference compound]
- Relative Reactivity to Enzyme (relative value of absorbance) α2 M-Try [1]: 1.0
- Relative Reactivity to Enzyme (relative value of absorbance) Normal Serum (Normal serum): 1.0
- Solubility [2]: 6 mM/l
- Relative Reactivity to Enzyme (relative value of absorbance) Try (Trypsin): 1.0

Compound: H-D-Glu(OCH.(C2 H5)2)-Gly-Arg-ANBS.2HCl [Substrate No. 1]
- Relative Reactivity to Enzyme (relative value of absorbance) α2 M-Try [1]: 1.19
- Relative Reactivity to Enzyme (relative value of absorbance) Normal Serum (Normal serum): 0.03
- Relative Reactivity to Enzyme (relative value of absorbance) Try (Trypsin): 0.84
